{"source": "patent US20100152108A1", "about": "“METHODS AND COMBINATION THERAPIES FOR TREATING ALZHEIMER'S DISEASE” (priority 2006, published 2010)", "key": {"[1]": {"system": "scopolamine-treated rats", "experiment": "Two-trial object recognition paradigm in scopolamine-treated rats", "assay_type": "in vivo, Sprague-Dawley rats", "details": "for Memory Performance (N-F, difference in time spent with the novel object and familiar object): scopolamine 0.3 mg/kg i.p., mean ± SEM", "protocol": "The two-trial object recognition paradigm developed by Ennaceur and Delacour in the rat was used as a model of episodic memory.\nMale Sprague-Dawley rats between six and seven weeks old, weighing between 220-300 grams were obtained from Centre d′Elevage (Rue Janvier, B.P. 55, Le Genest-Saint-Isle 53940, France). The animals were housed in groups of 2 to 4 in polypropylene cages (with a floor area of 1032 cm^2) under standard conditions: at room temperature (22±2° C.), under a 12 hour light/12 hour dark cycle, with food and water provided ad libitum. Animals were permitted to acclimate to environmental conditions for at least 5 days before therapy begins, and were numbered on their tails with indelible marker.\nThe experimental arena was a square wooden box (60 cm×60 cm×40 cm) painted dark blue, with 15 cm×15 cm black squares under a clear plexiglass floor. The arena and objects placed inside the arena were cleaned with water between each trial to eliminate any odor trails left by rats. The arena was placed in a dark room illuminated only by halogen lamps directed towards the ceiling in order to produce a uniformly dim light in the box of approximately 60 lux. The day before testing, animals were allowed to freely explore the experimental arena for three minutes in the presence of two objects (habituation). Animals to be tested were placed in the experimental room at least 30 minutes before testing.\nOn the day of the experiment, animals were submitted to two trials separated by an interval of 120 minutes. During the first, or acquisition, trial (T1), rats were placed in the arena, which was prepared with two identical objects. The time required for each animal to complete 15 seconds of object exploration was determined, with a cut-off time of four minutes. […] Rats were placed back in the arena for three minutes, and exploration of both objects was determined. Locomotor activity of rats (number of times rats cross grid lines visible under the clear plexiglass floor) was scored for during T1 and T2. […]\nThe following parameters were measured: (1) time required to achieve 15 seconds of object exploration during T1; (2) locomotor activity during T1 (number of crossed lines); (3) time spent in active exploration of the familiar object during T2 (TFamiliar); (4) time spent in active exploration of the novel object during T2 (TNovel); and (5) locomotor activity during T2 (number of crossed lines). The difference between time spent in active exploration of the novel object during T2 and time spent in active exploration of the familiar object during T2 (ΔTNovel−TFamiliar) was evaluated. The recognition index [(TNovel−TFamiliar/(TNovel+TFamiliar)] was derived, and the percentage of animals with TNovel−TFamiliar>5 seconds was assessed. […]"}, "[2]": {"system": "patients with mild to moderate Alzheimer's disease", "protocol": "Patients were evaluated with the ADAS-cog (primary endpoint), CIBIC-plus, MMSE, NPI and ADL at baseline, week 12 and week 26. The Alzheimer's Disease Assessment Scale Cognitive Subscale (ADAS-cog) score assesses memory and cognition over time. The Mini Mental State Exam (MMSE) also assesses memory and cognition. The Alzheimer's Disease Cooperative Study-Clinical Global Impression of Change (ADCS-CGIC, also called CIBIC-plus) measures the patient's global status over time. It takes into account memory, cognition, behavior and motor disturbance. The Neuropsychiatric Inventory (NPI) measures the patients' behavior and psychiatric disturbance in 12 domains including delusions, hallucinations, agitation/aggression, depression/dysphoria, anxiety, elation/euphoria, apathy/indifference, disinhibitions, irritability/lability, motor disturbance, nighttime behaviors, and appetite/eating. An ADL inventory assesses the impact of cognitive impairment on activities of daily living. […] All subjects enrolled were included in the intention-to-treat analysis. Thus, the analysis includes all randomized patients, even those who discontinued the study prior to study completion."}, "[3]": {"system": "release of acetylcholine from the cortex", "details": "microdialysis; cited from earlier work"}, "[4]": {"system": "amyloid beta 42 (Aβ42)", "details": "cultured human cells and animal models; cited from earlier work"}, "[5]": {"system": "human neuroblastoma SK-N-SH", "details": "cited from earlier work"}, "[6]": {"details": "week 26, dimebon 20 mg orally three times a day vs placebo"}}, "note": "Several values for one entry are separate records, joined by “and”; a condition that tells them apart may be missing. Equal entries are not always repeated. Where two headings read alike, the source gives them in different places.", "data": [{"smiles": "Cc1ccc2c(c1)c1c(n2CCc2ccc(C)nc2)CCN(C)C1.Cl.Cl", "note": "[Dimebon, 2,8-dimethyl-5-(2-(6-methyl-3-pyridyl)-ethyl)-2,3,4,5-tetrahydro-1H-pyrido(4,3-b)indol dihydrochloride]", "values": [{"measurement": "effect at doses below the maximally effective dose, tested individually", "setting": "[1]; dimebon 2.5 mg/kg oral, donepezil 0.03 mg/kg intraperitoneal", "result": "only partially effective"}, {"measurement": "maximally effective dose", "setting": "[1]; oral", "result": 5, "unit": "mg/kg"}, {"measurement": "Memory Performance (N-F, difference in time spent with the novel object and familiar object)", "setting": "[1]; vehicle i.p. + Dimebon 2.5 mg/kg p.o.", "result": "2.57 ± 0.95", "unit": "s"}, {"measurement": "Memory Performance (N-F, difference in time spent with the novel object and familiar object)", "setting": "[1]; vehicle i.p. + Dimebon 5 mg/kg p.o.", "result": "5.00 ± 2.09", "unit": "s"}, {"measurement": "all other gastrointestinal side effects combined", "setting": "[2]; in vivo", "result": "< 3", "unit": "%"}, {"measurement": "patients who experienced serious adverse events", "setting": "[2]; in vivo", "result": 3.4, "unit": "%"}, {"measurement": "tolerability", "setting": "[2]; in vivo", "result": "well-tolerated"}, {"measurement": "patients who experienced serious adverse events", "setting": "[2]; in vivo, po", "result": 2.2, "unit": "%"}, {"measurement": "most common adverse event: dry mouth", "setting": "[2]; in vivo, dihydrochloride", "result": "18% and 13.5%"}, {"measurement": "ADL mean drug-placebo difference", "setting": "[2]; [6]", "result": 3.35, "unit": "units"}, {"measurement": "CIBIC-plus mean drug-placebo difference", "setting": "[2]; [6]", "result": 0.61, "unit": "units"}, {"measurement": "MMSE mean drug-placebo difference", "setting": "[2]; [6]", "result": 2.24, "unit": "units"}, {"measurement": "NPI mean drug-placebo difference", "setting": "[2]; [6]", "result": 3.57, "unit": "units"}, {"measurement": "ADAS-cog mean drug-placebo difference", "setting": "[2]; week 26, dimebon 20 mg orally three times a day vs placebo, intention-to-treat", "result": 4.0, "unit": "units"}, {"measurement": "change in the 5 endpoints, mean baseline scores compared with week 26 scores", "setting": "[2]; week 26 vs baseline, ADAS-cog, CIBIC-plus, MMSE, NPI, ADL", "result": "significant improvements in all 5 endpoints"}, {"measurement": "ADAS-cog mean drug-placebo difference", "setting": "[2]; week 52, dimebon vs placebo", "result": 6.9, "unit": "units"}, {"measurement": "ADL mean drug-placebo difference", "setting": "[2]; week 52, dimebon vs placebo", "result": 5.2, "unit": "units"}, {"measurement": "CIBIC-plus mean drug-placebo difference", "setting": "[2]; week 52, dimebon vs placebo", "result": 0.80, "unit": "units"}, {"measurement": "MMSE mean drug-placebo difference", "setting": "[2]; week 52, dimebon vs placebo", "result": 2.3, "unit": "units"}, {"measurement": "NPI mean drug-placebo difference", "setting": "[2]; week 52, dimebon vs placebo", "result": 3.5, "unit": "units"}, {"measurement": "change in the 5 endpoints, mean baseline scores compared with week 52 scores", "setting": "[2]; week 52 vs baseline, ADAS-cog, CIBIC-plus, MMSE, NPI, ADL", "result": "improvements in all 5 endpoints"}]}, {"smiles": "CN[C@@H](C)C/C=C/c1cncc(OC(C)C)c1", "note": "[TC-1734]", "values": [{"measurement": "release of acetylcholine from the cortex", "setting": "[3]", "result": "enhances the release of acetylcholine"}]}, {"smiles": "C[C@@H](C(=O)O)c1ccc(-c2ccccc2)c(F)c1", "note": "[Flurizan]", "values": [{"measurement": "levels of amyloid beta 42 (Aβ42)", "setting": "[4]", "result": "reduces levels"}]}, {"smiles": "C#CCN[C@@H]1CCc2ccc(OC(=O)N(C)CC)cc21", "note": "[Ladostigil]", "values": [{"measurement": "apoptosis-induced levels of holo-APP protein", "setting": "[5]", "result": "reduces apoptosis-induced levels of holo-APP protein"}, {"measurement": "phospho PKC and release of the nonamyloidogenic amyloid protein", "setting": "[5]", "result": "increases phospho PKC and the release of the nonamyloidogenic amyloid protein"}, {"measurement": "apoptotic cell death", "setting": "[5]; in response to long term culture", "result": "reduces apoptotic cell death"}]}]}
